Measured values reported in ChEMBL document CHEMBL1140646, “Design of a partial PPARdelta agonist” (Bioorg Med Chem Lett, 2007).

Legend:
[1] = molecular target: T1, Peroxisome proliferator-activated receptor alpha (Homo sapiens) (UniProt Q07869); experiment: Agonist activity at human PPARalpha by transactivation assay relative to NNC61-4655; assay type: functional
T1 sequence (whole entry): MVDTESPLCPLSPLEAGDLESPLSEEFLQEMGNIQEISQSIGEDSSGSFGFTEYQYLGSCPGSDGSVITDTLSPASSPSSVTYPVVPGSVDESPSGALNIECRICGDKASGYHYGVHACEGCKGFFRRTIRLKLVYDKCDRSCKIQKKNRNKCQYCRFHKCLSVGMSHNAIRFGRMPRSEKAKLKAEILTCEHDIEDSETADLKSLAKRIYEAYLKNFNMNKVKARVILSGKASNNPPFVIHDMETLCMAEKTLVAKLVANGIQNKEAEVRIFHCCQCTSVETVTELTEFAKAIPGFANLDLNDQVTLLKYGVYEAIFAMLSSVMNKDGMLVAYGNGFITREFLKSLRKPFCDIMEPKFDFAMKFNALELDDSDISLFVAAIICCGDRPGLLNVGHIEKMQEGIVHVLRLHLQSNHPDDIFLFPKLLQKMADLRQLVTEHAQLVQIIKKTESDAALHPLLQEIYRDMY

[2] = molecular target: T2, Peroxisome proliferator-activated receptor delta (Homo sapiens, UniProt Q03181)
T2 sequence (Q03181 whole entry): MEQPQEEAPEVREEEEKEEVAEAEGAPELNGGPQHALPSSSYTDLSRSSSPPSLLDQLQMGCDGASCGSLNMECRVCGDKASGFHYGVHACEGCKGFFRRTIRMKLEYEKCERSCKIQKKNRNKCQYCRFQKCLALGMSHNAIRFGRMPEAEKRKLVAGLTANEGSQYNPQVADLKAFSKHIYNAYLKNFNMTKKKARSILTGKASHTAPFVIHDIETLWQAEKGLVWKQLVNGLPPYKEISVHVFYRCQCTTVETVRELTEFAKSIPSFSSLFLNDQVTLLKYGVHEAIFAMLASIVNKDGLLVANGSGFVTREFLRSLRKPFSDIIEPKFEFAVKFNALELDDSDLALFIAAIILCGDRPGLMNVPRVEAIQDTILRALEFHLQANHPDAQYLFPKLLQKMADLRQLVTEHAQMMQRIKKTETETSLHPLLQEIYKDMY

[3] = molecular target: T3, Peroxisome proliferator-activated receptor gamma (Homo sapiens, UniProt P37231); assay type: functional
T3 sequence (P37231 whole entry): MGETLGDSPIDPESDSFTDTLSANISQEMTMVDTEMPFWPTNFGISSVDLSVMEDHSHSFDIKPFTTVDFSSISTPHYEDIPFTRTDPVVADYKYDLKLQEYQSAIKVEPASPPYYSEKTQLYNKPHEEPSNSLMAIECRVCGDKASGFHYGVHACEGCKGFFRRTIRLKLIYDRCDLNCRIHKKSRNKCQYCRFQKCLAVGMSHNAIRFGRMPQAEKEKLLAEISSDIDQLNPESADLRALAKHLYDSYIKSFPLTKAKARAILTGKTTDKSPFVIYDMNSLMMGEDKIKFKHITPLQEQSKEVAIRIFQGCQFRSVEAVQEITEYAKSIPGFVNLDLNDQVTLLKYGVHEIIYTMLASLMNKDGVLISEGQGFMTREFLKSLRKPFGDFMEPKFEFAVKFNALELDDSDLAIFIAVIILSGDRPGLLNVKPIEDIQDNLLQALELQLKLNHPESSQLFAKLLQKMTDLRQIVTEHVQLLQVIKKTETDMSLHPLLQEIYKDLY

[4] = molecular target: T4, Peroxisome proliferator-activated receptor alpha (Homo sapiens, UniProt Q07869); experiment: Agonist activity at human PPARalpha by transactivation assay; assay type: functional
T4 sequence (Q07869 whole entry): T1 sequence (whole entry)

SMILES | Activity [1] [%] | EC50 [2] [nM] | EC50 [3] [nM] | EC50 [4] [nM]
O=C(O)COc1ccc(Sc2cc(C#CCN3CCOCC3)nc(C#Cc3ccc(C(F)(F)F)cc3)c2)c2c1CCC2 | < 10 | 130 | – | –
Cc1cc(SCc2sc(-c3ccc(C(F)(F)F)cc3)nc2C)ccc1OCC(=O)O | 68 | – | – | –
Cc1cc(Sc2cc(C#CCN3CCOCC3)nc(C#Cc3ccc(C(F)(F)F)cc3)c2)ccc1OCC(=O)O | 50 | 50 | 5500 | 100
